Test results reported in ChEMBL document CHEMBL3632526, “Novel, potent, selective and cellular active ABC type PTP1B inhibitors containing (methanesulfonyl-phenyl-amino)-acetic acid methyl ester phosphotyrosine mimetic” (Bioorg Med Chem, 2015).
Values belong to the compound of their own block, whether it stands above or below them. The source made the active and inactive calls. No cut-off for these calls is given here.

Columns and labels:
[1] = biological target: T1, Tyrosine-protein phosphatase non-receptor type 1 (Homo sapiens, UniProt P18031); experiment: Inhibition of recombinant PTP1B (unknown origin) assessed as hydrolysis of pNPP to pNP after 30 mins
T1 sequence (P18031 whole entry): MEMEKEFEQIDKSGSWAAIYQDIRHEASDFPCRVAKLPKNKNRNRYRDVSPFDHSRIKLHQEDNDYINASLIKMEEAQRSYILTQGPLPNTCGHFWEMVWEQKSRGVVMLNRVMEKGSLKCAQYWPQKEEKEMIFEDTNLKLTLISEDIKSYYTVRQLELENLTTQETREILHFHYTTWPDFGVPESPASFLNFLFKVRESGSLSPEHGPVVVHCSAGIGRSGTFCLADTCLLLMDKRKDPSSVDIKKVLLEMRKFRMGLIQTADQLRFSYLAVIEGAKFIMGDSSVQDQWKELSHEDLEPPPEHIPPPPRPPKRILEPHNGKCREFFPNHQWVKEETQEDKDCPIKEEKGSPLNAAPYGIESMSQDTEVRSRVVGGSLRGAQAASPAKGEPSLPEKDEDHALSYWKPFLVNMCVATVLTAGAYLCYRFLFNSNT

[2] = biological target: T2, Tyrosine-protein phosphatase non-receptor type 6 (Homo sapiens, UniProt P29350); experiment: Inhibition of SHP1 (unknown origin) assessed as hydrolysis of pNPP to pNP after 30 mins
[3] = biological target: T3, Tyrosine-protein phosphatase non-receptor type 11 (Homo sapiens, UniProt Q06124); experiment: Inhibition of SHP2 (unknown origin) assessed as hydrolysis of pNPP to pNP after 30 mins
T3 sequence (Q06124 whole entry): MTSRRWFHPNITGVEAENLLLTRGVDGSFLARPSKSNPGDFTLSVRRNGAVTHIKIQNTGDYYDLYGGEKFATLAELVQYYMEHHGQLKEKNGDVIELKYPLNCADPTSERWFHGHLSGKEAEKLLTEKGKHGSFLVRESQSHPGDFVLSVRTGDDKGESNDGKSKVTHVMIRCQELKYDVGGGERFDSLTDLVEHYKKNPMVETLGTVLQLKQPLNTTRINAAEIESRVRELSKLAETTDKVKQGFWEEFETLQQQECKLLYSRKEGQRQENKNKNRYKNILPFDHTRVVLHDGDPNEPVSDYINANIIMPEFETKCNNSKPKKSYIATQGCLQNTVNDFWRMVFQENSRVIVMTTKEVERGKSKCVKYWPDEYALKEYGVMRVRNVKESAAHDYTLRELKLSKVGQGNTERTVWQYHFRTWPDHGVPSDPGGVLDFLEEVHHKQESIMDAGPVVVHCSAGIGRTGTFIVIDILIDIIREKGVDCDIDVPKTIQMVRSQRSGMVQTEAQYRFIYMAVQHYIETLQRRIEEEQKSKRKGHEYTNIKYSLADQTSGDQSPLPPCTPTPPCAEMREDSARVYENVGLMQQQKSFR

Homo sapiens [4] = species on record: Homo sapiens; experiment: Selectivity ratio of IC50 for SHP1 (unknown origin) to IC50 for PTP1B (unknown origin)
[5] = biological target: T4, Tyrosine-protein phosphatase non-receptor type 2 (Homo sapiens) (UniProt P17706); experiment: Inhibition of TCPTP (unknown origin) assessed as hydrolysis of pNPP to pNP at 25 uM after 30 mins
T4 sequence (whole entry): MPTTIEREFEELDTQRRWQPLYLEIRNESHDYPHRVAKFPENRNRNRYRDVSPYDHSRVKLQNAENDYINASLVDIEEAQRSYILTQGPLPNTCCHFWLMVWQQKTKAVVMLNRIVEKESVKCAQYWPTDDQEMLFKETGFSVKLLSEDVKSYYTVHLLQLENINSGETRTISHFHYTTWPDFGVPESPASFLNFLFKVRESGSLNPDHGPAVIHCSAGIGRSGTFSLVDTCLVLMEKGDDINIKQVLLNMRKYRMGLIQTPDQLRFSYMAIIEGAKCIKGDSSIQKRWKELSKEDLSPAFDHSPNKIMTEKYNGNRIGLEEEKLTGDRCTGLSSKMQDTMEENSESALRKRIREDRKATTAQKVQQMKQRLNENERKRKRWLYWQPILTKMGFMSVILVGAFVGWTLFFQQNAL

[6] = biological target: Receptor-type tyrosine-protein phosphatase F (Homo sapiens) (UniProt P10586); experiment: Inhibition of LAR (unknown origin) assessed as hydrolysis of pNPP to pNP at 25 uM after 30 mins
[7] = biological target: T5, Tyrosine-protein phosphatase non-receptor type 1 (Homo sapiens) (UniProt P18031); experiment: Inhibition of recombinant PTP1B (unknown origin) assessed as hydrolysis of pNPP to pNP at 25 uM after 30 mins
T5 sequence (whole entry): T1 sequence (P18031 whole entry)

[8] = biological target: T2, Tyrosine-protein phosphatase non-receptor type 6; experiment: Inhibition of SHP1 (unknown origin) assessed as hydrolysis of pNPP to pNP at 25 uM after 30 mins
[9] = biological target: T6, Tyrosine-protein phosphatase non-receptor type 11 (Homo sapiens) (UniProt Q06124); experiment: Inhibition of SHP2 (unknown origin) assessed as hydrolysis of pNPP to pNP at 25 uM after 30 mins
T6 sequence (whole entry): T3 sequence (Q06124 whole entry)

[10] = biological target: T7, Tyrosine-protein phosphatase non-receptor type 2 (Homo sapiens, UniProt P17706); experiment: Inhibition of TCPTP (unknown origin) assessed as hydrolysis of pNPP to pNP after 30 mins
T7 sequence (P17706 whole entry): T4 sequence (whole entry)

Homo sapiens [11] = species on record: Homo sapiens; experiment: Selectivity ratio of IC50 for TCPTP (unknown origin) to IC50 for PTP1B (unknown origin)
3T3-L1 = experiment: Inhibition of PTP1B in IRbeta expressing mouse 3T3L1 cells assessed as increase in phosphorylation level of IRbeta at 15 uM and 30 uM prior to insulin stimulation by SDS-PAGE analysis; assay type: cell-based
CHO = experiment: Inhibition of PTP1B in CHO cells transfected with human IRbeta expressing plasmid assessed as increase in phosphorylation level of IRbeta at 15 uM and 30 uM incubated for 4 hrs prior to insulin stimulation for 10 mins by SDS-PAGE analysis; assay type: cell-based; conditions: Cricetulus griseus
Homo sapiens [12] = species on record: Homo sapiens; experiment: Increase in insulin-stimulated glucose uptake in differentiated human skeletal muscle cells preincubated for 4 hrs followed by insulin stimulation for 10 mins and addition of 2-NBDG measured after 30 mins by 2-NBDG-based fluorescence analysis; assay type: functional
L6 [13] = experiment: Increase in insulin stimulated glucose uptake in differentiated rat L6 myotube at 5 uM preincubated for 4 hrs followed by insulin stimulation for 10 mins and addition of 2-NBDG measured after 30 mins by 2-NBDG-based fluorescence analysis; assay type: functional
L6 [14] = experiment: Increase in insulin stimulated glucose uptake in differentiated rat L6 myotube at 10 uM preincubated for 4 hrs followed by insulin stimulation for 10 mins and addition of 2-NBDG measured after 30 mins by 2-NBDG-based fluorescence analysis; assay type: functional

Receptor-type tyrosine-protein phosphatase F (Homo sapiens), sequence (P10586 whole entry): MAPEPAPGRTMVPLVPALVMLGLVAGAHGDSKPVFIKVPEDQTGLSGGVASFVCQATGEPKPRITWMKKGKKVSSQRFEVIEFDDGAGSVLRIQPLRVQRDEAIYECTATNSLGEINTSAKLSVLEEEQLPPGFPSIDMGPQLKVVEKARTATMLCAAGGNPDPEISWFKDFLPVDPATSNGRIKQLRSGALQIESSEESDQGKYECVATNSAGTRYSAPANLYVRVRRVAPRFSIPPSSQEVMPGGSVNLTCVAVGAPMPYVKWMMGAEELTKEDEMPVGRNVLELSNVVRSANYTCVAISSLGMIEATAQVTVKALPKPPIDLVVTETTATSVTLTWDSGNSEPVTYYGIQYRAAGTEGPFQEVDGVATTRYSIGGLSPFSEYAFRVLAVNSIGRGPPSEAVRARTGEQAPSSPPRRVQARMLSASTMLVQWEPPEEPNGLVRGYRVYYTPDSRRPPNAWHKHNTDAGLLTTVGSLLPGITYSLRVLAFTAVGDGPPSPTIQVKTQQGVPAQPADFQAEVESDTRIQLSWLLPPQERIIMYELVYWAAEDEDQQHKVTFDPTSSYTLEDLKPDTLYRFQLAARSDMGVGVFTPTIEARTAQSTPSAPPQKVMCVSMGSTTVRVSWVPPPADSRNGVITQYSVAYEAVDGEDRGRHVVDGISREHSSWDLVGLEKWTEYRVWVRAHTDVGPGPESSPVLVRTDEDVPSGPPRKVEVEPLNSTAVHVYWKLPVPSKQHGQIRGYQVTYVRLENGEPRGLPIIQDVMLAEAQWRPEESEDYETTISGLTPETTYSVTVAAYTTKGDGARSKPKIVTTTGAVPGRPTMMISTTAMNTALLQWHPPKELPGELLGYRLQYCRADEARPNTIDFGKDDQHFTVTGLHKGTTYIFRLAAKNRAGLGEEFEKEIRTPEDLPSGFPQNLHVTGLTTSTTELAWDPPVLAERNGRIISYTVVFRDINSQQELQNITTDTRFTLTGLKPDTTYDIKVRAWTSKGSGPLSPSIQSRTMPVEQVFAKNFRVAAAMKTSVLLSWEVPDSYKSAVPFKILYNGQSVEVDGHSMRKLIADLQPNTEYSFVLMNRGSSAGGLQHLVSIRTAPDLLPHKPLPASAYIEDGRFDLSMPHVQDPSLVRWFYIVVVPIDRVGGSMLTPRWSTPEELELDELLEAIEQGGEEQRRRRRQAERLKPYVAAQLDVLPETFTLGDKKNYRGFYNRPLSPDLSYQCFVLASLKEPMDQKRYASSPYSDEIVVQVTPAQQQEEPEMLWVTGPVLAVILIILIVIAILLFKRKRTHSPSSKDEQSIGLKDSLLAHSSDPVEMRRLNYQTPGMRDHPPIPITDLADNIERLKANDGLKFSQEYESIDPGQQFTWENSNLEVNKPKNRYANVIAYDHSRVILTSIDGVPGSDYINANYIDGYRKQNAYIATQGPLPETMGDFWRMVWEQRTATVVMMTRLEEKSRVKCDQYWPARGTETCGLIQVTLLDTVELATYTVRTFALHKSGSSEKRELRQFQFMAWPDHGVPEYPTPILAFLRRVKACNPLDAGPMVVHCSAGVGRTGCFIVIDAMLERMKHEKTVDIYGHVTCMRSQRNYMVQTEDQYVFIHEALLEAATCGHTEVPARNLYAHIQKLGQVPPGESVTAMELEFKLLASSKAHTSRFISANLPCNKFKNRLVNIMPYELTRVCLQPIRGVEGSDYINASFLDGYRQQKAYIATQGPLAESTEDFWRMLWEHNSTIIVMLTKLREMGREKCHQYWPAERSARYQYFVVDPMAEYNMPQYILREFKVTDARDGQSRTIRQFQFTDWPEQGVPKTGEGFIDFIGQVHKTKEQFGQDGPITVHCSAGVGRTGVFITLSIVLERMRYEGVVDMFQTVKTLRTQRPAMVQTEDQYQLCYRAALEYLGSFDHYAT
T2 sequence (P29350 whole entry): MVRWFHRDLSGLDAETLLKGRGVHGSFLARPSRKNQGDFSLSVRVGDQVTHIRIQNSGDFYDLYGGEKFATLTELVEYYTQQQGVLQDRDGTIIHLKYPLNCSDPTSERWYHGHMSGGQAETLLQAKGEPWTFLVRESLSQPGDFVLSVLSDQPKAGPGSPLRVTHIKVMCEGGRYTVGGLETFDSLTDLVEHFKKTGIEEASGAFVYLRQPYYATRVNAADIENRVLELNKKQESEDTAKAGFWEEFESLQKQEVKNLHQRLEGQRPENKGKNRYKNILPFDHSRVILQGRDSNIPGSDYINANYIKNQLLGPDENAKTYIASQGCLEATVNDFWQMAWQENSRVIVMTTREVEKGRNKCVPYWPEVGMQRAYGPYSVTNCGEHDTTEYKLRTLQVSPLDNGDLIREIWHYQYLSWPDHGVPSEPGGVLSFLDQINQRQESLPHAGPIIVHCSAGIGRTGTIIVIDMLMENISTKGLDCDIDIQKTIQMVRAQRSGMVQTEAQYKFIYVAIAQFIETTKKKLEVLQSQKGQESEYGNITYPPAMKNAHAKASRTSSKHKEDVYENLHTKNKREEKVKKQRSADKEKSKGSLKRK

IC50 [1]: 346 nM
inhibition [5]: < 50%
inhibition [8]: < 50%
inhibition [9]: < 50%
inhibition [6]: < 50%
Compound: COC(=O)CN(c1ccc(CN(c2ccc(CN(Cc3ccccc3)S(C)(=O)=O)cc2)S(=O)(=O)c2ccc(OC)cc2)cc1)S(C)(=O)=O

IC50 [1]: 902 nM
Compound: CCCOc1ccc(S(=O)(=O)N(Cc2ccc(N(CC(=O)OC)S(C)(=O)=O)cc2)c2ccc(CN(Cc3ccccc3)S(C)(=O)=O)cc2)cc1

IC50 [1]: 222 nM
IC50 [10]: 1860 nM
IC50 [2]: 2310 nM
Ratio IC50 (Homo sapiens [11]): 8
Ratio IC50 (Homo sapiens [4]): 10
inhibition [9]: < 50%
inhibition [6]: < 50%
Compound: CCOc1ccc(S(=O)(=O)N(Cc2ccc(N(CC(=O)OC)S(C)(=O)=O)cc2)c2ccc(CN(Cc3ccccc3)S(C)(=O)=O)cc2)cc1
inhibition (3T3-L1): Active
inhibition (CHO): Active
Activity (Homo sapiens [12]): Dose-dependent effect
Activity (L6 [13]): 23.3%
Activity (L6 [14]): 29.3%

IC50 [1]: 896 nM
Compound: CCCCOc1ccc(S(=O)(=O)N(Cc2ccc(N(CC(=O)OC)S(C)(=O)=O)cc2)c2ccc(CN(Cc3ccccc3)S(C)(=O)=O)cc2)cc1

Continued, compound first:

Compound: COC(=O)CN(c1ccc(CN(c2ccc(N(Cc3ccccc3)S(C)(=O)=O)cc2)S(=O)(=O)Cc2ccccc2)cc1)S(C)(=O)=O
IC50 [1]: 492 nM
IC50 [2]: 9610 nM
IC50 [3]: 11600 nM
Ratio IC50 (Homo sapiens [4]): 20
inhibition [5]: < 50%
inhibition [6]: < 50%

Compound: CCS(=O)(=O)N(CC(=O)OC)c1ccc(CN(c2ccc(CN(Cc3cccc(Cl)c3)S(C)(=O)=O)cc2)S(=O)(=O)Cc2ccccc2)cc1
inhibition [7]: < 50%

Compound: COC(=O)CN(c1ccc(CN(c2ccc(CN(Cc3ccccc3)S(C)(=O)=O)cc2)S(=O)(=O)Cc2ccccc2)cc1)S(C)(=O)=O
inhibition [7]: < 50%

Compound: COC(=O)CN(c1ccc(CN(c2ccc(CN(Cc3ccccc3)S(C)(=O)=O)cc2)S(=O)(=O)c2ccccc2)cc1)S(C)(=O)=O
IC50 [1]: 16100 nM

Compound: CCOc1ccc(S(=O)(=O)Nc2ccc(N(Cc3ccc(N(CC(=O)OC)S(=O)(=O)CC)cc3)S(=O)(=O)Cc3ccccc3)cc2)cc1
IC50 [1]: 470 nM
IC50 [10]: 1920 nM
IC50 [2]: 11400 nM
inhibition [9]: < 50%
inhibition [6]: < 50%

Compound: CCCCOc1ccc(S(=O)(=O)N(Cc2ccc(N(CC(=O)OC)S(C)(=O)=O)cc2)c2ccc(NS(=O)(=O)Cc3ccccc3)cc2)cc1
IC50 [1]: 1710 nM

Compound: COC(=O)CN(c1ccc(CN(c2ccc(CN(Cc3ccc(C)cc3)S(C)(=O)=O)cc2)S(=O)(=O)Cc2ccccc2)cc1)S(C)(=O)=O
IC50 [1]: 20300 nM

Compound: COC(=O)CN(c1ccc(CN(c2ccc(N(Cc3cccc(Cl)c3)S(C)(=O)=O)cc2)S(=O)(=O)Cc2ccccc2)cc1)S(C)(=O)=O
inhibition [7]: < 50%
